Assay results from US11077100B2, “Tetrahydroquinoline derivatives as P2X7 receptor antagonists” (RaQualia Pharma Inc., priority 2017, dated 2021).
pIC50: −log10 of the molar value.

Key:
human P2X7 = human P2X7 (Homo sapiens (Human), UniProt Q99572); assay: Human P2X7 functional assay (Ca2+ influx, Fluo-4, FDSS); type: cell-based; details: antagonistic activity with respect to the human P2X7 receptor; BzATP final concentration 80 microM
In short: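 Ca2+ influx was triggered with BzATP (80 μM final) after a 10-min room-temperature compound preincubation and monitored with Fluo-4 (ex 480/em 540 nm) on FDSS. The cells were HEK293 stably carrying FLAG-tagged human P2X7. Duplicate-averaged 7-point dose-responses gave IC50s.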

rat P2X7 = rat P2X7 (Rattus norvegicus (Rat), UniProt Q64663); assay: Rat P2X7 functional assay (Ca2+ influx, Fluo-4, FDSS); type: cell-based; details: HEK293 cells stably expressing rat P2X7; BzATP final 10 microM; 7-point dose-response; read-out: Antagonistic activities with respect to the rat P2X7 receptor (IC50)
Protocol: Rat P2X7 Functional Assay
The functional activity of compounds was determined by measuring changes in intracellular calcium concentration using a Ca^2+-sensitive fluorescent dye, Fluo-4 (Molecular Probes). The changes in fluorescent signal were monitored by the cell imaging technology by Hamamatsu Photonics's Functional Drug Screening System (FDSS). Increases in intracellular Ca^2+ concentration were readily detected upon activation with BzATP.
HEK293 cells stably expressing rat P2X7 (GenBank accession number NM_019256) were grown in Corning CellBIND cell culture flasks, in a 5% CO2 humidified incubator to about 80% confluence. Media composition consisted of Dulbecco's Modified Eagle Medium (high glucose), 10% fetal bovine serum ([…]), 100 units/[…] Penicillin, 100 microg/mL Streptomycin and 250 microg/mL Geneticine.
1. […] Plate-out HEK293-rat P2X7 cells (40 microL medium containing 5,000 cells per well) into poly-D-lysine coated 384-well plates (BD Falcon) at 24 h prior to assay.
2. Incubate at 37° C. in 5% CO2.
3. Incubate the plate at 37° C. in 5% CO2 for 1 h.
5. Test compounds were prepared at 100× the test concentration in DMSO by serial dilution with Biomek-FX liquid handling instrument. 33× diluted compound solutions in assay buffer were prepared in intermediate compound plate with Biomek-NX liquid handling instrument. A further 3× dilution occurred in below steps 6 and 7.
6. Add 20 microL of 33× diluted compound solutions into each well and leave the plate for 10 min under the dark at room temperature.
7. Measure activity by FDSS as follows: • Set the assay plate on the stacker of FDSS. • Start the detection of fluorescence intensity at 540 nm by 480 nm exicitation. • After 30 seconds, add 20 microL of assay buffer containing 30 microM BzATP (final 10 microM).
IC50 values for compounds of the present invention were determined from 7-point dose-response studies. Curves were generated using the average of duplicate wells for each data point. Finally, the IC50 values are calculated with the best-fit dose curve determined by XLfit (ID Business Solutions Ltd.).

Chain of human P2X7 (Q99572 whole entry): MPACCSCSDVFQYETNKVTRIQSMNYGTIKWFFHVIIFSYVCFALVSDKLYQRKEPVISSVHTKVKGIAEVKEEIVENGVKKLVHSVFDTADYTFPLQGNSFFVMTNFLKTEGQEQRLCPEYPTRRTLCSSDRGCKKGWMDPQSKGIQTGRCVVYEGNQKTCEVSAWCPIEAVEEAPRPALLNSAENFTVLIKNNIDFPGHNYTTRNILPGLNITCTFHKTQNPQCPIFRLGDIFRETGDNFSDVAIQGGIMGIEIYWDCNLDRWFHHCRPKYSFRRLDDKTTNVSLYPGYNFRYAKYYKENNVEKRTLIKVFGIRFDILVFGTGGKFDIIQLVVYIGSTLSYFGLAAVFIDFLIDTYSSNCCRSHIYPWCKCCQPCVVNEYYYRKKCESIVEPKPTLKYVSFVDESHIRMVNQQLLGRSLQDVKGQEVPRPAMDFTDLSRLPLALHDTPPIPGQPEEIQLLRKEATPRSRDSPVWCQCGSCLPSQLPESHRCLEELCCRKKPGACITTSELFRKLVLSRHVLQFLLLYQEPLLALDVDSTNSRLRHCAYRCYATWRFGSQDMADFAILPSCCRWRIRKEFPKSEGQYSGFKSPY
Chain of rat P2X7 (Q64663 whole entry): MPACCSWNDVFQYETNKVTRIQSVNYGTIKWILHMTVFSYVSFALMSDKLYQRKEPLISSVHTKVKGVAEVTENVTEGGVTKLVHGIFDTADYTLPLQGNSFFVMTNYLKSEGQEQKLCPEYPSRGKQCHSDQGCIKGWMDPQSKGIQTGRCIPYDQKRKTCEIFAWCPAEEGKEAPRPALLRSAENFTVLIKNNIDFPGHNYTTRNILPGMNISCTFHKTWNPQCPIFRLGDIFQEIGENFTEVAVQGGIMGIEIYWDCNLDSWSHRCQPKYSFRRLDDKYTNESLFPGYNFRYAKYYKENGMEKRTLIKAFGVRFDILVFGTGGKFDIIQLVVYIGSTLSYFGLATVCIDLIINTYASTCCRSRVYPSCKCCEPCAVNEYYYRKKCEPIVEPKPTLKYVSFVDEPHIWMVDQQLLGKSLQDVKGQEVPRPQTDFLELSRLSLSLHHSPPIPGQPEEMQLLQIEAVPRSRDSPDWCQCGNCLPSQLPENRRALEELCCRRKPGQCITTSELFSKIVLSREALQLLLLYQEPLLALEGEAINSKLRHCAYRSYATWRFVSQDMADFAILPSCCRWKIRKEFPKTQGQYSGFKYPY

pIC50 (human P2X7)	pIC50 (rat P2X7)	Compound
> 7.30	> 6.00	N[C@]1(CO)CC[C@@](F)(C(=O)NCc2ccc(Cl)cc2Cl)c2cccnc21 (relative stereo) [Example 59, (5S*,8R*)-8-amino-N-(2,4-dichloro-benzyl)-5-fluoro-8-(hydroxymethyl)-5,6,7,8-tetrahydroquinoline-5-carboxamide]
6.52 to 7.00	> 6.00	N[C@@]1(CO)CC[C@@](F)(C(=O)NCc2ccc(Cl)cc2Cl)c2cccnc21 (relative stereo) [Example 60, (5S*,8S*)-8-amino-N-(2,4-dichloro-benzyl)-5-fluoro-8-(hydroxymethyl)-5,6,7,8-tetrahydroquinoline-5-carboxamide]
> 7.30	> 6.00	O=C1COC[C@]2(CC[C@@](F)(C(=O)NCc3ccc(Cl)cc3Cl)c3cccnc32)N1 (relative stereo) [Example 61, (3R*,5′S*)-N-(2,4-dichlorobenzyl)-5′-fluoro-5-oxo-6′,7′-dihydro-5′H-spiro[morpholine-3,8′-quinoline]-5′-carboxamide]
6.52 to 7.00	> 6.00	O=C1COC[C@@]2(CC[C@@](F)(C(=O)NCc3ccc(Cl)cc3Cl)c3cccnc32)N1 (relative stereo) [Example 62, (3S*,5′S*)-N-(2,4-dichlorobenzyl)-5′-fluoro-5-oxo-6′,7′-dihydro-5′H-spiro[morpholine-3,8′-quinoline]-5′-carboxamide]
7.00 to 7.30	> 6.00	O=C(NCc1cccc(Cl)c1Cl)[C@]1(F)CC[C@@H](O)c2ncccc21 (stereo in doubt) [Example 121, (5S,8RS)-N-(2,3-dichlorobenzyl)-5-fluoro-8-hydroxy-5,6,7,8-tetrahydroquinoline-5-carboxamide]
> 7.30	> 6.00	Cc1cc(Cl)cc(Cl)c1CNC(=O)C1CCC(=O)c2ncccc21 (stereo not shown) [Example 1, N-(2,4-dichloro-6-methyl-benzyl)-8-oxo-5,6,7,8-tetrahydroquinoline-5-carboxamide]
> 7.30	> 6.00	O=C1CCC(C(=O)NCc2cccc(C(F)(F)F)c2Cl)c2cccnc21 (stereo not shown) [Example 2, N-(2-chloro-3-(trifluoromethyl)benzyl)-8-oxo-5,6,7,8-tetrahydroquinoline-5-carboxamide]
6.00 to 6.52	> 6.00	O=C1CCC(C(=O)NCc2cccc(Cl)c2Cl)c2cccnc21 (stereo not shown) [Example 3, N-(2,3-dichlorobenzyl)-8-oxo-5,6,7,8-tetrahydro-quinoline-5-carboxamide]
> 7.30	> 6.00	Cc1cc(Cl)cc(Cl)c1CNC(=O)C1CCC(O)c2ncccc21 (stereo not shown) [Example 6, N-(2,4-dichloro-6-methyl-benzyl)-8-hydroxy-5,6,7,8-tetrahydroquinoline-5-carboxamide]
> 7.30	> 6.00	O=C(NCc1cccc(C(F)(F)F)c1Cl)C1CCC(O)c2ncccc21 (stereo not shown) [Example 7, N-(2-chloro-3-(trifluoromethyl)benzyl)-8-hydroxy-5,6,7,8-tetrahydro-quinoline-5-carboxamide]
> 7.30	> 6.00	O=C(NCc1cccc(Cl)c1Cl)C1CCC(O)c2ncccc21 (stereo not shown) [Example 8, N-(2,3-dichlorobenzyl)-8-hydroxy-5,6,7,8-tetra hydroquinoline-5-carboxamide]
> 7.30	> 6.00	COCc1cc(Cl)cc(Cl)c1CNC(=O)C1CCC(O)c2ncccc21 (stereo not shown) [Example 10, N-(2,4-dichloro-6-(methoxy-methyl)benzyl)-8-hydroxy-5,6,7,8-tetrahydro-quinoline-5-carboxamide]
> 7.30	> 6.00	C=C1CC(C(=O)NCc2c(C)cc(Cl)cc2Cl)c2cccnc21 (stereo not shown) [Example 11, N-(2,4-dichloro-6-methyl-benzyl)-7-methylene-6,7-dihydro-5H-cyclopenta [b]pyridine-5-carboxamide]
> 7.30	> 6.00	Cc1cc(Cl)cc(Cl)c1CNC(=O)C1(F)CCC(=O)c2ncccc21 (stereo not shown) [Example 12, N-(2,4-dichloro-6-methylbenzyl)-5-fluoro-8-oxo-5,6,7,8-tetrahydroquinoline-5-carboxamide]
> 7.30	> 6.00	O=C1CCC(F)(C(=O)NCc2cccc(C(F)(F)F)c2Cl)c2cccnc21 (stereo not shown) [Example 13, N-(2-chloro-3-(trifluoromethyl)benzyl)-5-fluoro-8-oxo-5,6,7,8-tetrahydro-quinoline-5-carboxamide]
> 7.30	> 6.00	O=C1CCC(F)(C(=O)NCc2c(Cl)cc(Cl)cc2CO)c2cccnc21 (stereo not shown) [Example 14, N-(2,4-dichloro-6-(hydroxymethyl)benzyl)-5-fluoro-8-oxo-5,6,7,8-tetrahydro-quinoline-5-carboxamide]
> 7.30	> 6.00	Cc1cc(Cl)cc(Cl)c1CNC(=O)C1CC(=O)c2ncccc21 (stereo not shown) [Example 16, N-(2,4-dichloro-6-methylbenzyl)-7-oxo-6,7-dihydro-5H-cyclopenta[b]pyridine-5-carboxamide]
> 7.30	> 6.00	Cc1cc(Cl)cc(Cl)c1CNC(=O)C1(F)CCC(O)c2ncccc21 (stereo not shown) [Example 18, N-(2,4-dichloro-6-methyl-benzyl)-5-fluoro-8-hydroxy-5,6,7,8-tetrahydroquinoline-5-carboxamide]
> 7.30	> 6.00	O=C(NCc1cccc(C(F)(F)F)c1Cl)C1(F)CCC(O)c2ncccc21 (stereo not shown) [Example 19, N-(2-chloro-3-(trifluoro-methyl)benzyl)-5-fluoro-8-hydroxy-5,6,7,8-tetrahydro-quinoline-5-carboxamide]
> 7.30	> 6.00	O=C(NCc1c(Cl)cc(Cl)cc1CO)C1(F)CCC(O)c2ncccc21 (stereo not shown) [Example 20, N-(2,4-dichloro-6-(hydroxymethyl)benzyl)-5-fluoro-8-hydroxy-5,6,7,8-tetrahydro quinoline-5-carboxamide]
> 7.30	> 6.00	O=C(NCc1cccc(Cl)c1Cl)C1(F)CCC(O)c2ncccc21 (stereo not shown) [Example 21, N-(2,3-dichlorobenzyl)-5-fluoro-8-hydroxy-5,6,7,8-tetrahydroquinoline-5-carboxamide]
> 7.30	> 6.00	O=C(NCc1ccc(Cl)cc1Cl)C1(F)CCC(O)c2ncccc21 (stereo not shown) [Example 22, N-(2,4-dichlorobenzyl)-5-fluoro-8-hydroxy-5,6,7,8-tetrahydroquinoline-5-carboxamide]
> 7.30	> 6.00	COCc1cc(Cl)cc(Cl)c1CNC(=O)C1(F)CCC(O)c2ncccc21 (stereo not shown) [Example 23, N-(2,4-dichloro-6-(methoxy-methyl)benzyl)-5-fluoro-8 hydroxy-5,6,7,8-tetrahydro-quinoline-5-carboxamide]
> 7.30	> 6.00	Cc1cc(Cl)cc(Cl)c1CNC(=O)C1CC(O)c2ncccc21 (stereo not shown) [Example 26, N-(2,4-dichloro-6-methyl-benzyl)-7-hydroxy-6,7-dihydro-5H-cyclopenta[b] pyridine-5-carboxamide]
> 7.30	> 6.00	O=C(NCc1cccc(C(F)(F)F)c1Cl)C1CC(O)c2ncccc21 (stereo not shown) [Example 27, N-(2-chloro-3-(trifluoro-methyl)benzyl)-7-hydroxy-6,7-dihydro-5H-cyclopenta[b] pyridine-5-carboxamide]
7.00 to 7.30	> 6.00	O=C(NCc1cccc(Cl)c1Cl)C1CC(O)c2ncccc21 (stereo not shown) [Example 28, N-(2,3-dichlorobenzyl)-7-hydroxy-6,7-dihydro-5H-cyclo-penta[b]pyridine-5-carboxamide]
> 7.30	> 6.00	O=C(NCc1ccc(Cl)cc1Cl)C1(F)CC(O)c2ncccc21 (stereo not shown) [Example 29, N-(2,4-dichlorobenzyl)-5-fluoro-7-hydroxy-6,7-dihydro-5H-cyclopenta[b]pyridine-5-carboxamide]

Compound	pIC50 (human P2X7)	pIC50 (rat P2X7)
Cc1cc(Cl)cc(Cl)c1CNC(=O)C1(O)CCC(O)c2ncccc21 (stereo not shown) [Example 24, N-(2,4-dichloro-6-methyl-benzyl)-5,8-dihydroxy-5,6,7,8-tetrahydroquinoline-5-carboxamide]	> 7.30	> 6.00
O=C(NCc1cccc(C(F)(F)F)c1Cl)C1(O)CCC(O)c2ncccc21 (stereo not shown) [Example 25, N-(2-chloro-3-(trifluoro-methyl)benzyl)-5,8-dihydroxy-5,6,7,8-tetrahydroquinoline-5-carboxamide]	6.52 to 7.00	> 6.00
